Data as given in ChEMBL document CHEMBL5050844 (2019).

Tests used:
[1] = Induction of allogenic human T cell activation at 10 uM assessed fold increase in cell proliferation; type: functional, T cell line
[2] = Induction of anti-CD3/CD28 antibodies-stimulated human CD4+ T cell activation at 1.11 uM assessed fold increase in CD69 expression measured by flow cytometry analysis; type: functional, T cell line
[3] = Induction of activation of human CD56+ CD3- NK cells co-cultured with human K562 cells in 1:1 ratio and assessed as increase in IFN-gamma secretion at 10 uM measured by ELISA assay; type: functional, Natural killer cell
[4] = Induction of activation of human CD56+ CD3- NK cells co-cultured with human K562 cells in 1:1 ratio and assessed as increase in IFN-gamma secretion at 2.5 uM measured by ELISA assay; type: functional, Natural killer cell
[5] = Induction of anti-CD3/CD28 antibodies-stimulated human CD8+ T cell activation at 1.11 uM assessed fold increase in CD69 expression measured by flow cytometry analysis; type: functional, T cell line
[6] = Induction of anti-CD3 antibodies-stimulated human CD4+ T cell activation at 1.11 uM assessed fold increase in CD69 expression measured by flow cytometry analysis; type: functional, T cell line; note: reference of the scale not given here
[7] = Induction of anti-CD3/CD28 antibodies-stimulated human anergic T cell activation at 0.37 uM assessed fold increase in IFN-gamma secretion measured by ELISA assay; type: functional, T cell line
B cell = test: Induction of anti-IgM-stimulated human CD20+ B cell activation at 10 to 1000 uM assessed as increase in CD69 expression measured as mean fluorescence intensity AUC by flow cytometry analysis; type: functional, cell-based; conditions: dose 10-1000 µM
[8] = Induction of anti-CD3/CD28 antibodies-stimulated human T cell activation at 1.11 uM assessed fold increase in TNF-alpha secretion measured by ELISA assay; type: functional, T cell line
[9] = Induction of anti-CD3 antibodies-stimulated human exhausted T cell activation assessed fold increase in IL-2 secretion measured by ELISA assay; type: functional, T cell line; note: reference of the scale not given here
[10] = Induction of anti-CD3 antibodies-stimulated human T cell activation at 1.11 uM assessed fold increase in TNF-alpha secretion measured by ELISA assay; type: functional, T cell line; note: reference of the scale not given here
[11] = Induction of activation of human CD56+ CD3- NK cells co-cultured with human K562 cells in 1:1 ratio and assessed as increase in TNF-alpha secretion at 10 uM measured by ELISA assay; type: functional, Natural killer cell
[12] = Induction of anti-CD3 antibodies-stimulated human CD4+ T cell activation at 10 uM assessed fold increase in CD69 expression measured by flow cytometry analysis; type: functional, T cell line; note: reference of the scale not given here
[13] = Induction of anti-CD3 antibodies-stimulated human T cell activation at 8 uM assessed fold increase in IL-2 secretion measured by ELISA assay; type: functional, T cell line; note: reference of the scale not given here
[14] = Induction of anti-CD3/CD28 antibodies-stimulated human anergic T cell activation at 10 uM assessed fold increase in IFN-gamma secretion measured by ELISA assay; type: functional, T cell line
[15] = Induction of anti-CD3 antibodies-stimulated human exhausted CD8+ T cell activation assessed fold increase in CTLA4 expression measured by flow cytometry analysis; type: functional, T cell line; note: reference of the scale not given here
[16] = Induction of anti-CD3 antibodies-stimulated human exhausted T cell activation assessed fold increase in GM-CSF secretion measured by ELISA assay; type: functional, T cell line; note: reference of the scale not given here
[17] = Induction of anti-CD3/CD28 antibodies-stimulated human T cell activation at 1 uM assessed fold increase in CD25 expression measured by ELISA assay; type: functional, T cell line
[18] = Induction of anti-CD3 antibodies-stimulated human T cell activation at 10 uM assessed fold increase in GM-CSF secretion measured by ELISA assay; type: functional, T cell line; note: reference of the scale not given here
[19] = Induction of anti-CD3/CD28 antibodies-stimulated human T cell activation at 0.3 uM assessed fold increase in IL-2 secretion measured by ELISA assay; type: functional, T cell line
[20] = Induction of anti-CD3/CD28 antibodies-stimulated human CD4+ T cell activation at 1.11 uM assessed fold increase in cell proliferation measured by flow cytometry analysis; type: functional, T cell line
[21] = Induction of anti-CD3 antibodies-stimulated human T cell activation at 1.11 uM assessed fold increase in IFN-gamma secretion measured by ELISA assay; type: functional, T cell line; note: reference of the scale not given here
[22] = Induction of anti-CD3/CD28 antibodies-stimulated human CD4+ T cell activation at 10 uM assessed fold increase in cell proliferation measured by flow cytometry analysis; type: functional, T cell line
[23] = Induction of anti-CD3 antibodies-stimulated human T cell activation at 10 uM assessed fold increase in IFN-gamma secretion measured by ELISA assay; type: functional, T cell line; note: reference of the scale not given here
[24] = Induction of anti-CD3 antibodies-stimulated human T cell activation at 8 uM assessed fold increase in CD25 expression measured by ELISA assay; type: functional, T cell line; note: reference of the scale not given here
[25] = Induction of anti-CD3 antibodies-stimulated human CD8+ T cell activation at 10 uM assessed fold increase in CD69 expression measured by flow cytometry analysis; type: functional, T cell line; note: reference of the scale not given here
[26] = Induction of anti-CD3/CD28 antibodies-stimulated human T cell activation at 10 uM assessed fold increase in TNF-alpha secretion measured by ELISA assay; type: functional, T cell line
[27] = Induction of anti-CD3/CD28 antibodies-stimulated human T cell activation at 0.3 uM assessed fold increase in CD25 expression measured by ELISA assay; type: functional, T cell line
[28] = Induction of activation of human CD56+ CD3- NK cells co-cultured with human K562 cells in 1:1 ratio and assessed as increase in TNF-alpha secretion at 2.5 uM measured by ELISA assay; type: functional, Natural killer cell
[29] = Induction of anti-CD3 antibodies-stimulated human CD8+ T cell activation at 1.11 uM assessed fold increase in CD69 expression measured by flow cytometry analysis; type: functional, T cell line; note: reference of the scale not given here
[30] = Induction of anti-CD3/CD28 antibodies-stimulated human T cell activation at 4 uM assessed fold increase in IL-2 secretion measured by ELISA assay; type: functional, T cell line
[31] = Induction of anti-CD3/CD28 antibodies-stimulated human CD4+ T cell activation at 10 uM assessed fold increase in CD69 expression measured by flow cytometry analysis; type: functional, T cell line
[32] = Induction of anti-CD3 antibodies-stimulated human CD8+ T cell activation at 1.11 uM assessed fold increase in cell proliferation measured by flow cytometry analysis; type: functional, T cell line; note: reference of the scale not given here
[33] = Induction of anti-CD3/CD28 antibodies-stimulated human T cell activation at 10 uM assessed fold increase in IFN-gamma secretion measured by ELISA assay; type: functional, T cell line
[34] = Induction of anti-CD3/CD28 antibodies-stimulated human T cell activation at 1.11 uM assessed fold increase in IFN-gamma secretion measured by ELISA assay; type: functional, T cell line
[35] = Induction of anti-CD3/CD28 antibodies-stimulated human T cell activation at 10 uM assessed fold increase in GM-CSF secretion measured by ELISA assay; type: functional, T cell line
[36] = Induction of anti-CD3 antibodies-stimulated human T cell activation at 1 uM assessed fold increase in CD25 expression measured by ELISA assay; type: functional, T cell line; note: reference of the scale not given here
[37] = Induction of anti-CD3 antibodies-stimulated human CD8+ T cell activation at 10 uM assessed fold increase in cell proliferation measured by flow cytometry analysis; type: functional, T cell line; note: reference of the scale not given here

Cn1cnnc1C(F)(F)[C@](C)(F)c1cccc(N2Cc3c(cc(C(=O)N4CC[C@H](O)C4)cc3C(F)(F)F)C2=O)c1
fold change (FC) [1]: <=2
fold change (FC) [2]: 1.201
fold change (FC) [3]: <=1
fold change (FC) [4]: 1.01
fold change (FC) [5]: <=1.2
fold change (FC) [6]: 1.201
fold change (FC) [7]: <=2.5
AUC (B cell): < 0.5
fold change (FC) [8]: <=1.5
fold change (FC) [9]: 2.51
fold change (FC) [10]: 2.01
fold change (FC) [11]: 1.01
fold change (FC) [12]: >1.601
fold change (FC) [13]: >=0.201
fold change (FC) [14]: >4.01
fold change (FC) [15]: <=1.4
fold change (FC) [16]: <=1.4
fold change (FC) [17]: 1.01
fold change (FC) [18]: 2.01
fold change (FC) [19]: 1.01
fold change (FC) [20]: 3.01
fold change (FC) [21]: <=2
fold change (FC) [22]: >4
fold change (FC) [23]: 2.01
fold change (FC) [24]: >=1.001
fold change (FC) [25]: 1.201
fold change (FC) [26]: 2.01
fold change (FC) [27]: 1.01
fold change (FC) [28]: 1.01
fold change (FC) [29]: <=1.2
fold change (FC) [30]: >=7.5
fold change (FC) [31]: 1.401
fold change (FC) [32]: <=2
fold change (FC) [33]: 2.01
fold change (FC) [34]: <=2
fold change (FC) [35]: 2.01
fold change (FC) [36]: 0.801
fold change (FC) [37]: >4

Cc1cc(C(=O)Nc2cccc([C@H](C)Cc3nncn3C)c2)nc(C2CC2)n1
fold change (FC) [1]: 2.01
fold change (FC) [2]: <=1.2
fold change (FC) [3]: 2.01
fold change (FC) [4]: 2.01
fold change (FC) [5]: <=1.2
fold change (FC) [6]: <=1.2
fold change (FC) [7]: <=2.5
AUC (B cell): > 1.51
fold change (FC) [8]: 2.01
fold change (FC) [9]: <=2.5
fold change (FC) [10]: 1.51
fold change (FC) [11]: 2.01
fold change (FC) [12]: >1.601
fold change (FC) [13]: >=0.201
fold change (FC) [14]: <=2.5
fold change (FC) [15]: >1.61
fold change (FC) [16]: >1.61
fold change (FC) [17]: >=1.76
fold change (FC) [18]: 2.01
fold change (FC) [19]: 5
fold change (FC) [20]: <=2
fold change (FC) [21]: 2.01
fold change (FC) [22]: >4
fold change (FC) [23]: >4
fold change (FC) [24]: >=1.001
fold change (FC) [25]: 1.401
fold change (FC) [26]: >4
fold change (FC) [27]: 1.51
fold change (FC) [28]: 2.01
fold change (FC) [29]: <=1.2
fold change (FC) [30]: >=7.5
fold change (FC) [31]: >1.601
fold change (FC) [32]: <=2
fold change (FC) [33]: >4
fold change (FC) [34]: 2.01
fold change (FC) [35]: >4
fold change (FC) [36]: >=1.001
fold change (FC) [37]: >4

C[C@H](Cc1nncn1C)c1cccc(N2Cc3c(cc(CN4CC(O)C4)cc3C(F)(F)F)C2=O)c1
fold change (FC) [1]: 2.01
fold change (FC) [2]: <=1.2
fold change (FC) [3]: 2.01
fold change (FC) [4]: 1.01
fold change (FC) [5]: <=1.2
fold change (FC) [6]: 1.201
fold change (FC) [7]: <=2.5
AUC (B cell): 0.5
fold change (FC) [8]: <=1.5
fold change (FC) [9]: >3.01
fold change (FC) [10]: <=1.5
fold change (FC) [11]: 2.01
fold change (FC) [12]: 1.201
fold change (FC) [13]: >=0.201
fold change (FC) [14]: >4.01
fold change (FC) [15]: >1.61
fold change (FC) [16]: 1.41
fold change (FC) [17]: 1.31
fold change (FC) [18]: <=1.5
fold change (FC) [19]: 2.51
fold change (FC) [20]: <=2
fold change (FC) [21]: <=2
fold change (FC) [22]: 3.01
fold change (FC) [23]: <=2
fold change (FC) [24]: >=1.001
fold change (FC) [25]: <=1.2
fold change (FC) [26]: 1.51
fold change (FC) [27]: 1.01
fold change (FC) [28]: 2.01
fold change (FC) [29]: <=1.2
fold change (FC) [30]: >=7.5
fold change (FC) [31]: 1.201
fold change (FC) [32]: <=2
fold change (FC) [33]: >4
fold change (FC) [34]: 2.01
fold change (FC) [35]: 1.51
fold change (FC) [36]: >=1.001
fold change (FC) [37]: <=2
